Laboratory results: patent US20070238700A1, “N-PHENYL-1,1,1-TRIFLUOROMETHANESULFONAMIDE HYDRAZONE DERIVATIVE COMPOUNDS AND THEIR USAGE IN CONTROLLING PARASITES” (priority 2006, published 2007)
Read-outs that look alike come from different tables or passages of the source.

Key:
[1] = system: Rhipicephalus sanguineus; assay: Rapid screening protocol for topical application on brown dog ticks (% mortality)
Experimental: d) Rapid Screening Protocol for Topical Application on Brown Dog Ticks (Rhipicephalus sanguineus)
The aim of the test was to determine the presence of significant acaricidal activity in sample compounds or formulations when applied topically on brown dog ticks. A tick was defined as dead if it gave no apparent response when touched lightly and observed for 1 minute. To assess the experimental compound for acaricidal activity, a single dose level was chosen based on known results from previous experiments with a commercially available active reference compound. Both permethrin and fipronil were employed as reference compounds. The insect species tested was the Brown Dog Tick (Rhipicephalus sanguineus). Mixed sex adult ticks were used for tests. The strain used was cultured by von Berky Veterinary Services, Woody Point, QLD, AU and supplied as unfed adult ticks (mixed sex). Ticks were maintained in controlled conditions (temp. 18°±2° C., humidity 75±5% RH).
Test compounds (formulations or active ingredients) were stored in a refrigerator (5±1° C.) unless otherwise specified. Temperature was maintained at 25±1° C. and the humidity was ambient. The screening dose chosen was higher than that known to kill 90% of insects (LD90) using the reference compound. In the case of topical application of active compounds on adult ticks, the reference compound was fipronil and the dose chosen was 10 μg of active per tick (=10 μg of fipronil/1 μl of acetone). Ticks were each treated on the abdomen with 1 μL of a single dose level of test sample in acetone; ten ticks were treated with solvent only (acetone) in each test. Tests were replicated 4 times (total of 40 ticks treated). Ticks were held in recovery containers maintained under appropriate rearing conditions for 24 hours. Mortality resulting from the treatments was recorded at 24 hours. Pooled 24 hour mortality data were converted to percentages.

[2] = system: Ctenocephalides felis
Procedure, shortened: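 Adult cat fleas (3–7 days post-emergence), 15 per flask in ≥4 replicates, exposed to a dried acetone residue at 1.26 μg/cm^2 on a Coatasil-treated glass flask base. Held at 25±1° C, 75±5% humidity; mortality (immobile or unable to right) scored at 8, 24 and/or 48 h.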

[3] = system: Ctenocephalides felis; assay: Ctenocephalides felis adulticide assay: C. felis dose response (LC50)
Source text: c) Ctenocephalides felis Adulticide Assay: C. felis Dose Response
The purpose of this example was to determine the LC50 when cat fleas were contacted with a glass surface treated with sample compounds or formulations prepared as described above. […] The test species was the cat flea (Ctenocephalides felis). The strain used was obtained from external suppliers as pupae and held in the laboratory under testing conditions until the adults had emerged. Fifteen (15) fleas were used in a minimum of four replicates for each dose level (total of 60 fleas per dose level). The insects were selected to be in the adult life stage, aged between 3 and 7 days post emergence.
The compounds to be tested were dissolved in acetone just prior to testing. Samples of compounds were stored in a refrigerator (5±1° C.) unless otherwise specified. During the mortality testing, the temperature was maintained at 25±1° C. Humidity was maintained at 75±5%. The base (area=159 mm^2) of a 100 mL glass Erlenmeyer (conical) flask provided the treatment surface. Flasks were pretreated with Coatasil™ glass treatment to maximise bio-availability of test compounds by preventing them from binding to the glass surface.
The base of the 100 mL Erlenmeyer flask was treated with 0.5 mL of test sample in acetone and gently swirled. This volume was sufficient to cover the base of the flask. Flasks were left to dry for 24 hours before flea exposure. Adult cat fleas were lightly anaesthetised by cooling and then placed into a sorting chamber, which allowed fleas to revive and jump into the Erlenmeyer flasks. Fifteen (15) adult cat fleas were collected in each flask. The top of the flasks were then covered in Parafilm™ and small holes made to allow gas exchange. A 0.5 mL volume of acetone was applied to the base of an Erlenmeyer flask and the testing proceeded in the same manner described above. Cat fleas in the treatment containers were held under testing conditions for 24 hours. Mortality resulting from the treatments was recorded at 8 and 24 hours.

[4] = system: Rhipicephalus sanguineus; assay: Dose response protocol for topical application on brown dog ticks (LD50); settings: 24 h mortality, probit analysis
Experimental: e) Dose response protocol for topical application on brown dog ticks (Rhipicephalus sanguineus): The test determines the level of insecticidal activity of sample compounds or formulations when applied topically on brown dog ticks. Sample compounds were stored prior to use in a freezer (−5±1° C.), unless otherwise specified.
• Mortality: A tick is defined as dead after it gives no apparent response when touched lightly or gently breathed upon, while observed for 30 seconds. • LD50 (Lethal Dose 50): The dose of a topically applied treatment at which 50% of the dog ticks are killed. • Reference compound: To assess an experimental compound for significant acaricidal activity a single dose level is chosen, which is based upon known results from previous experiments using a commercially available active i.e., a reference compound. The reference compound selected is one in common use, and one that has a similar mode of action against the Brown Dog Tick (i.e., the test species), • Recovery container: A recovery container consists of a 500 ml round plastic container measuring 115 mm diameter and 70 mm height, with a tight fitting lid that has 10 small (˜1 mm) holes inserted for air exchange. A 90 mm diameter piece of filter paper was placed on the bottom of the container and moistened with 1 mL of distilled water.
Adult, mixed sex, Brown Dog Ticks (Rhipicephalus sanguineus) were reared as follows: (i) cultured, (ii) transferred unfed, to a testing laboratory, and (iii) then maintained under controlled conditions (i.e., temp. 18°±2° C., humidity 75±5% RH). The ticks used were selected for vigor prior to testing, i.e., capable of actively walking and responsive to being touched or gently breathed upon.
During the testing, the temperature was maintained at 25±1° C. and the humidity was ambient. Seven dose levels (concentrations) of sample compound, in the form of serial dilutions in acetone, were derived from a pilot study and covered a range that produced very low to very high mortality. Groups of ten ticks were treated topically (on the abdomen) with 1 μL of a single dose level of the sample compound. Each test was replicated four times, i.e., employing a total of 40 ticks per dose level of each sample compound. As a control, ten ticks were treated with solvent only (acetone) for each test. Following the treatment, the ticks were held in recovery containers maintained under appropriate rearing conditions for 24 hours. Mortality resulting from the treatments was recorded at 24 hours. […] Press, London (1971).]

| SMILES | R. sanguineus Mortality (%) 24 h ([1]; data from laboratory 2) [%] | C. felis Mortality (%) 8 h [2] [%] | C. felis Mortality (%) 24 h [2] [%] | C. felis LC50 [3] [ppm] | R. sanguineus LD50 [4] [μg/tick] | C. felis Mortality (%) 48 h [2] [%] | C. felis LC50 ([3]; data from laboratory 1) [ppm] | R. sanguineus Mortality (%) 24 h ([1]; data from laboratory 1) |
| --- | --- | --- | --- | --- | --- | --- | --- | --- |
| CC(=NN(C)C(=O)c1ccc(Cl)cc1Cl)c1cc(Cl)ccc1NS(=O)(=O)C(F)(F)F [Compound 62] | 100 | 100 | 100 | 2.2 | 1.6 | – | – | – |
| CC(=NN(c1ccc(F)cc1)C(C)C)c1cc(Cl)ccc1NS(=O)(=O)C(F)(F)F [Compound 48] | 80 | 95 | 100 | 0.64 | 6.3 | – | – | – |
| CC(=NN(C)c1ccc(Cl)c(Cl)c1)c1cc(Cl)ccc1NS(=O)(=O)C(F)(F)F [Compound 96] | 78 | 19 | 99 | 2.0 | 3.0 | – | – | – |
| CCC(=NN1CCCCC1)c1cc(Cl)ccc1NS(=O)(=O)C(F)(F)F [Compound 130] | 98 | 34 | 91 | 2.36 | 1.08 | – | – | – |
| CCN(N=C(C)c1cc(Cl)ccc1NS(=O)(=O)C(F)(F)F)c1ccc(F)cc1 [Compound 39] | 100 | – | 100 | 0.14 | 3.6 | 100 | – | – |
| CCOC(=O)N(C)N=C(C)c1cc(Cl)ccc1NS(=O)(=O)C(F)(F)F [Compound 126] | 100 | 55 | 97 | – | 0.69 | – | 1.84 | – |
| C/C(=N\N(C)C1CCCC1)c1cc(Cl)ccc1NS(=O)(=O)C(F)(F)F [Compound 211] | 98 | 12 | 85 | 1.9 | 1.01 | – | – | – |
| C/C(=N\N(CCC#N)C(=O)c1ccccc1)c1cc(Cl)ccc1NS(=O)(=O)C(F)(F)F [Compound 222] | 88 | 5 | 89 | 2.64 | 0.56 | – | – | – |
| CCOC(=O)N(CC)N=C(CC)c1cc(Cl)ccc1NS(=O)(=O)C(F)(F)F [Compound 127] | 100 | 100 | 100 | 1.22 | 0.54 | – | – | – |
| CC(=NN1CCCCC1)c1cc(Cl)ccc1NS(=O)(=O)C(F)(F)F [Compound 21, N-[2-[1-(1-piperidyl)imino]ethyl-4-chlorophenyl]-trifluoromethanesulfonamide] | – | 100 | 100 | – | 0.64 | – | 0.90 | 78^A % |
| CCN(N=C(C)c1cc(Cl)ccc1NS(=O)(=O)C(F)(F)F)c1ccccc1F [Compound 43] | 100 | – | 90 | 0.35 | 3.0 | 100 | – | – |
| CC(=NN1CC(=O)NC1=O)c1cc(Cl)ccc1NS(=O)(=O)C(F)(F)F [Compound 55] | 100 | 100 | 100 | – | 1.7 | – | 2.5 | – |
| CC(=NN(C)c1cccc(F)c1)c1cc(Cl)ccc1NS(=O)(=O)C(F)(F)F [Compound 74] | 100 | 100 | 100 | 0.76 | 2.0 | – | – | – |
| CCC(=NN(C)C(=O)c1ccc(Cl)cc1Cl)c1cc(Cl)ccc1NS(=O)(=O)C(F)(F)F [Compound 82] | 100 | 98 | 100 | 2.4 | 2.0 | – | – | – |
| CCC(=NN1CCOCC1)c1cc(Cl)ccc1NS(=O)(=O)C(F)(F)F [Compound 36] | 100 | – | 100 | 2.5 | 1.8 | 100 | – | – |
| CC(=NN1CCOCC1)c1cc(Cl)ccc1NS(=O)(=O)C(F)(F)F [Compound 20] | – | 100 | 100 | 0.86 | 0.75 | – | – | 95^A % |
| CCN(N=C(C)c1cc(Cl)ccc1NS(=O)(=O)C(F)(F)F)c1ccc(Cl)cc1Cl [Compound 30] | 90 | – | 100 | 5.2 | 8.5 | 100 | – | – |
| CCCN(N=C(C)c1cc(Cl)ccc1NS(=O)(=O)C(F)(F)F)c1cccc(F)c1 [Compound 72] | 100 | 100 | 100 | 1.5 | 3.1 | – | – | – |
| CCN(N=C(C)c1cc(Cl)ccc1NS(=O)(=O)C(F)(F)F)c1ccc(Cl)c(Cl)c1 [Compound 71] | 98 | 94 | 100 | 2.5 | 4.2 | – | – | – |
| CCN(N=C(C)c1cc(Cl)ccc1NS(=O)(=O)C(F)(F)F)C(=O)OC [Compound 139] | 100 | 97 | 100 | 5.14 | 0.39 | – | – | – |
| CCC(=NN1CCOC1=O)c1cc(Cl)ccc1NS(=O)(=O)C(F)(F)F [Compound 35] | 100 | – | 100 | 4.3 | 1.5 | 100 | – | – |
